Assay results published in US20100267561A1, “HERBICIDAL PYRIDAZINONE DERIVATIVES” (priority 2007, published 2010).

Experiments:
Experiment in all cases: Test B pre-/postemergence plant response
Format in all cases: in vivo
[1] = test system: morningglory (Ipomoea coccinea)
How it was run: (§1)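 Preemergence and postemergence (plants 2-18 cm, 1- to 4-leaf stage) applications used test chemicals in a non-phytotoxic solvent with surfactant. Plants were held in a greenhouse 13 to 15 days, then rated visually against controls on a 0-100 scale (0 no effect, 100 complete control).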

corn (Zea mays) = test system: corn (Zea mays)
How it was run: as §1

[2] = test system: cocklebur (Xanthium strumarium); conditions: for Cocklebur plant response rating: 8 g ai/ha
How it was run: as §1

[3] = test system: bermudagrass (Cynodon dactylon); conditions: for Bermudagrass plant response rating: 8 g ai/ha
How it was run: as §1

[4] = test system: blackgrass (Alopecurus myosuroides); conditions: for Blackgrass plant response rating: 8 g ai/ha
How it was run: as §1

[5] = test system: catchweed bedstraw (Galium aparine); conditions: Preemergence; for Galium plant response rating: scale 0 to 100
How it was run: as §1

[6] = test system: lambsquarters (Chenopodium album); conditions: for Lambsquarters plant response rating: postemergence, 0-100 scale; for Plant response rating, Lambsquarters: Postemergence
How it was run: as §1

[7] = test system: Russian thistle (Salsola iberica); conditions: Preemergence; for Russian Thistle plant response rating: scale 0 to 100
How it was run: as §1

[8] = test system: surinam grass (Brachiaria decumbens)
How it was run: as §1

kochia (Kochia scoparia) = conditions: for Kochia plant response rating: postemergence, 0-100 scale; for Plant response rating, Kochia: Postemergence
How it was run: as §1

soybean (Glycine max) = conditions: for Soybean plant response rating: postemergence, 0-100 scale; for Plant response rating, Soybean: Postemergence
How it was run: as §1

[9] = test system: downy bromegrass (Bromus tectorum); conditions: for Bromegrass, Downy plant response rating: 8 g ai/ha
How it was run: as §1

[10] = test system: wheat (Triticum aestivum)
How it was run: as §1

[11] = test system: yellow nutsedge (Cyperus esculentus)
How it was run: as §1

[12] = 8 g ai/ha, postemergence, 0-100 scale
[13] = 16 g ai/ha, postemergence, 0-100 scale
[14] = Postemergence, 31 g ai/ha, scale 0 to 100
[15] = Postemergence, 62 g ai/ha, scale 0 to 100, 0 no effect, 100 complete control
[16] = Preemergence, 31 g ai/ha, scale 0 to 100 (0 no effect, 100 complete control)
[17] = Preemergence, 62 g ai/ha, 0 to 100 scale, 0 no effect, 100 complete control
[18] = Preemergence, 8 g ai/ha, scale 0 to 100
[19] = Preemergence, 16 g ai/ha, scale 0 to 100
[20] = Postemergence, 16 g ai/ha, scale 0 to 100
[21] = Preemergence, 16 g ai/ha, scale 0 to 100 (0 no effect, 100 complete control)
[22] = 31 g ai/ha, scale 0 to 100 (0 no effect, 100 complete control)
[23] = 62 g ai/ha, 0 to 100 scale, 0 no effect, 100 complete control
[24] = 62 g ai/ha, scale 0 to 100, 0 no effect, 100 complete control

CCc1cc(-c2ccc(C(F)(F)F)cc2)nn1-c1c(O)cnn(CC)c1=O [Compound 67]
Morningglory plant response rating [1, 12]: 0
Morningglory plant response rating [1, 13]: 0
Plant response rating, Morningglory [1, 14]: 0
Plant response rating, Morningglory [1, 15]: 0
Plant response rating, Morningglory [1, 16]: 0
Plant response rating, Morningglory [1, 17]: 0
Morningglory plant response rating [1, 18]: 0
Morningglory plant response rating [1, 19]: 0
Corn plant response rating (corn (Zea mays); [12]): 75
Plant response rating, Corn (corn (Zea mays); [20]): 90
Plant response rating, Corn (corn (Zea mays); [14]): 100
Plant response rating, Corn (corn (Zea mays); [15]): 100
Plant response rating, Corn (corn (Zea mays); [16]): 100
Plant response rating, Corn (corn (Zea mays); [17]): 100
Corn plant response rating (corn (Zea mays); [18]): 60
Corn plant response rating (corn (Zea mays); [19]): 98
Cocklebur plant response rating ([2]; postemergence, 0-100 scale): 0
Plant response rating, Cocklebur [2, 20]: 0
Plant response rating, Cocklebur [2, 14]: 0
Plant response rating, Cocklebur [2, 15]: 0
Plant response rating, Cocklebur [2, 21]: 0
Plant response rating, Cocklebur [2, 16]: 0
Plant response rating, Cocklebur [2, 17]: 0
Cocklebur plant response rating ([2]; Preemergence, scale 0 to 100): 0
Bermudagrass plant response rating ([3]; postemergence, 0-100 scale): 0
Plant response rating, Bermudagrass [3, 20]: 0
Plant response rating, Bermudagrass [3, 14]: 60
Plant response rating, Bermudagrass [3, 15]: 75
Bermudagrass plant response rating ([3]; Preemergence, scale 0 to 100 (0 no effect, 100 complete control)): 0
Plant response rating, Bermudagrass [3, 21]: 0
Plant response rating, Bermudagrass [3, 16]: 0
Plant response rating, Bermudagrass [3, 17]: 0
Blackgrass plant response rating ([4]; postemergence, 0-100 scale): 85
Plant response rating, Blackgrass [4, 20]: 100
Plant response rating, Blackgrass [4, 14]: 100
Plant response rating, Blackgrass [4, 15]: 100
Plant response rating, Blackgrass [4, 21]: 100
Plant response rating, Blackgrass [4, 16]: 100
Plant response rating, Blackgrass [4, 17]: 100
Blackgrass plant response rating ([4]; Preemergence, scale 0 to 100): 100
Plant response rating, Galium [5, 22]: 0
Plant response rating, Galium [5, 23]: 0
Galium plant response rating ([5]; 8 g ai/ha): 0
Galium plant response rating ([5]; 16 g ai/ha): 0
Lambsquarters plant response rating ([6]; 8 g ai/ha): 0
Lambsquarters plant response rating ([6]; 16 g ai/ha): 0
Plant response rating, Lambsquarters ([6]; 31 g ai/ha, scale 0 to 100): 0
Plant response rating, Lambsquarters [6, 24]: 0
Plant response rating, Russian Thistle [7, 22]: 0
Plant response rating, Russian Thistle [7, 23]: 0
Russian Thistle plant response rating ([7]; 8 g ai/ha): 0
Russian Thistle plant response rating ([7]; 16 g ai/ha): 0
Surinam Grass plant response rating [8, 12]: 70
Surinam Grass plant response rating [8, 13]: 85
Plant response rating, Surinam Grass [8, 14]: 100
Plant response rating, Surinam Grass [8, 15]: 100
Plant response rating, Surinam Grass [8, 16]: 0
Plant response rating, Surinam Grass [8, 17]: 55
Surinam Grass plant response rating [8, 18]: 0
Surinam Grass plant response rating [8, 19]: 0
Kochia plant response rating (kochia (Kochia scoparia); 8 g ai/ha): 0
Kochia plant response rating (kochia (Kochia scoparia); 16 g ai/ha): 0
Plant response rating, Kochia (kochia (Kochia scoparia); 31 g ai/ha, scale 0 to 100): 0
Plant response rating, Kochia (kochia (Kochia scoparia); [24]): 0
Soybean plant response rating (soybean (Glycine max); 8 g ai/ha): 0
Soybean plant response rating (soybean (Glycine max); 16 g ai/ha): 0
Plant response rating, Soybean (soybean (Glycine max); 31 g ai/ha, scale 0 to 100): 0
Plant response rating, Soybean (soybean (Glycine max); [24]): 15
Bromegrass, Downy plant response rating ([9]; postemergence, 0-100 scale): 55
Plant response rating, Bromegrass, Downy [9, 20]: 80
Plant response rating, Bromegrass, Downy [9, 14]: 80
Plant response rating, Bromegrass, Downy [9, 15]: 100
Plant response rating, Bromegrass, Downy [9, 21]: 90
Plant response rating, Bromegrass, Downy [9, 16]: 100
Plant response rating, Bromegrass, Downy [9, 17]: 100
Bromegrass, Downy plant response rating ([9]; Preemergence, scale 0 to 100): 50
Wheat plant response rating [10, 12]: 95
Wheat plant response rating [10, 13]: 100
Plant response rating, Wheat [10, 14]: 100
Plant response rating, Wheat [10, 15]: 100
Plant response rating, Wheat [10, 16]: 100
Plant response rating, Wheat [10, 17]: 100
Wheat plant response rating [10, 19]: 70
Nutsedge, Yellow plant response rating [11, 12]: 0
Nutsedge, Yellow plant response rating [11, 13]: 0
Plant response rating, Nutsedge, Yellow [11, 14]: 0
Plant response rating, Nutsedge, Yellow [11, 15]: 0
Plant response rating, Nutsedge, Yellow [11, 16]: 0
Plant response rating, Nutsedge, Yellow [11, 17]: 0
Nutsedge, Yellow plant response rating [11, 18]: 0
Nutsedge, Yellow plant response rating [11, 19]: 0
